Data: patent publication US10246487B2, “Azaindoline compounds as granzyme B inhibitors” (viDA Therapeutics Inc., priority 2014, dated 2019)

Columns and labels:
GzmB [1] = biological target: T1, GzmB (Homo sapiens, UniProt P10144); assay: Inhibition of fibronectin cleavage by GzmB; type: biochemical; details: 20 nM granzyme B; for inhibition at 0.62 µM: 0.62 uM inhibitor, read-out: Percent Inhibition at Inhibitor Concentration 0.62 uM; for inhibition at 5.56 µM: 5.56 uM inhibitor, read-out: Percent Inhibition at Inhibitor Concentration 5.56 uM; for inhibition at 50 µM: 50 uM inhibitor, read-out: Percent Inhibition at Inhibitor Concentration 50 uM
T1 sequence (P10144 21-247): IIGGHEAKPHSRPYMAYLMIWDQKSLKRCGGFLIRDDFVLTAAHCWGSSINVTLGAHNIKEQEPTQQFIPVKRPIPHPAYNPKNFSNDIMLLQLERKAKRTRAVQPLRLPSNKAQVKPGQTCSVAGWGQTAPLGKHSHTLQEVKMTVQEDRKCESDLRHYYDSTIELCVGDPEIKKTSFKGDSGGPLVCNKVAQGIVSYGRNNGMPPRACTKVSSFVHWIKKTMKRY
Method: Black, 96 well high-binding assay plates (Griener Bio-one) were treated overnight at 4° C. with 40 uL of 8 ug/mL Hilyte Fluor 488 labeled Fibronectin (Cytoskeleton, Inc). After fibronectin coating, plates were washed 3 times in buffer (20 mM Tris-HCl, pH 7.4, 20 mM NaCl) then once with granzyme B assay buffer (50 mM HEPES, pH 7.5, 0.1% CHAPS). After washing, 50 μL of granzyme B assay buffer was added to each fibronectin-coated well. In a separate non-binding 96 well assay plate 5 μL of 20× inhibitor serial dilution stocks were added to 45 μL of 2.22× GzmB mix to establish inhibition (enzyme/inhibitor mixes were all prepared in granzyme B assay buffer and were incubated first at room temperature for 20 minutes, then at 30° C. for another 10 minutes). After incubation, 50 μL of this 2× enzyme/inhibitor mix was added to the corresponding coated well to initiate fibronectin cleavage (20 nM final granzyme B concentration, 8-point inhibitor dilution series starting at 50 uM). The assay was conducted at 30° C. in the TECAN plate reader (TECAN INFINITE® M1000 Pro), which was programmed to monitor the kinetic fluorescence polarization signal (filter set Ex/Em 470 nm/527 nm) with readings taken every minute, for 1 hour. Proteolytic activity was evaluated as the rate of fluorescence enhancement in the parallel emission over the linear range of the reaction. % Inhibition values were calculated from assay controls and the resulting date is shown in Table 7.

GzmB [2] = biological target: T1, GzmB; assay: Inhibition of cell detachment by GzmB assay (HDFa fibroblasts, MTS); type: cell-based; details: 50 uM inhibitor, 100 nM GzmB, HDFa primary human fibroblasts, 7 hours; read-out: Percent Inhibition of cell detachment at 50uM
Method: HDFa primary human fibroblasts were plated at 10 k/well in 200 ul, approximately 20 hrs before treatment. The next day, controls and 100 nM GzmB (recombinant, human) plus or minus inhibitor treatments were prepared in serum-free media. GzmB and inhibitor were incubated for 20 minutes at RT before adding to cells. Before addition, media and serum was removed from the cells and the cells were washed with PBS (1×), using pipettes to prevent disturbing the cells. Treatment preparations (100 ul) were added to the wells and incubated for 7 hours in a tissue culture incubator. After 7 hours, media and treatments were removed and the cells were washed with PBS (1×) to removed detached cells, using pipettes only. Phase pictures were taken then the PBS was removed and replaced with 100 uL of serum-free media and 20 uL of MTS and the cells were allowed to incubate for 3 hours in a cell culture incubator. After 3 hours the absorbance was read at 490 nm and a percent inhibition value for the treatments with inhibitors was determined from the control wells.

inhibition at 0.62 µM (GzmB [1]) [%] | inhibition at 5.56 µM (GzmB [1]) [%] | inhibition at 50 µM (GzmB [1]) [%] | inhibition at 50 µM (GzmB [2]) [%] | SMILES
45 | 79 | 98 | 100 | CC[C@H](C)[C@H](NC(=O)CCC(=O)O)C(=O)N[C@@H](CCC(=O)O)C(=O)N1c2ncccc2C[C@H]1C(=O)NCc1nn[nH]n1 [Example C4, (S)-5-((S)-2(((2H-tetrazol-5-yl)methyl)carbamoyl)-2,3-dihydro-1H-pyrrolo[2,3-B]pyridin-1-yl)-4-((2S,3S)-2-(3-carboxypropanamido)-3-methylpentanamido)-5-oxopentanoic acid]
56 | 77 | 94 |  | CC(C)[C@H](NC(=O)CCC(=O)O)C(=O)N[C@@H](CCC(=O)O)C(=O)N1c2ncccc2C[C@H]1C(=O)NCc1nn[nH]n1 [Example C17, (S)-5-((S)-2-(((2H-tetrazol-5-yl)methyl)carbamoyl)-2,3-dihydro-1H-pyrrolo[2,3-B]pyridin-1-yl)-4-((S)-2-(3-carboxypropanamido)-3-methylbutanamido)-5-oxopentanoic acid]
66 | 82 | 88 |  | CC[C@H](C)[C@H](NC(=O)Cc1nn[nH]n1)C(=O)NCC(=O)N1c2ncccc2C[C@H]1C(=O)NCc1nn[nH]n1 [Example A1, (S)-1-(2-((2S,3S)-2-(2-(2H-tetrazol-5-yl)acetamido)-3-methylpentanamido)acetyl)-N-((2H-tetrazol-5-yl)methyl)-2,3-dihydro-1H-pyrrolo[2,3-B]pyridine-2-carboxamide]
58 | 81 | 91 |  | CC[C@H](C)[C@H](NC(=O)Cc1ccccc1)C(=O)N[C@@H](CCC(=O)O)C(=O)N1c2ncccc2C[C@H]1C(=O)NCc1nn[nH]n1 [Example C9, (S)-5-((S)-2-(((2H-tetrazol-5-yl)methyl)carbamoyl)-2,3-dihydro-1H-pyrrolo[2,3-B]pyridin-1-yl)-4-((2S,3S)-3-methyl-2-(2-phenylacetamido)pentanamido)-5-oxopentanoic acid]
